# Data from patent publication US7071194B2, “Method for improving respiratory function and inhibiting muscular degeneration” (priority 2000, dated 2006).
# Several values for one entry are separate records, joined by “and”; a condition that tells them apart may be missing. Equal values may be shown once.
# Assays:
# [1] = rats; cited from earlier work
# normal conscious rats = assay: Respiratory function by head-out plethysmograph in normal conscious rats; assay type: in vivo, rat
# Procedure: (§1) Experiments were conducted in unanesthetized, awake, spontaneously breathing rats at 24 hours prior to SCI, at 24 hours p.i. and weekly afterwards at 1,2,3, and 4 weeks p.i. (1) Acclimatization of the Animals. […] Animals were placed in the body cylinder of the plethysmograph (FIG. 1a) for 60 minutes per day for at least 5 days. […] (2) Non-Invasive Measurements of Respiratory Rate, Tidal Volume and Minute Ventilation. Non-invasive measurements of respiratory function in conscious rats were performed with a restrained head-out plethysmograph specially designed for rodents (BUXCO Electronics, Inc., Sharon, Conn.) (FIG. 1a). The plethymograph apparatus has a neck seal that prevents leakage of air from between the animal's neck and the plethymograph opening. Displacement of the thoracic wall produced by the animal's respiratory movements causes changes in the cylinder pressure, which results in air flowing across a pneumotachograph located on the wall of the cylinder. The pressure drop across the pneumotachograph is measured with a pressure transducer and is proportional to the flow. This signal is amplified and integrated into volume. From measurements of volume and flow, a computer and appropriate software provides respiratory parameters, such as respiratory rate (f), tidal volume (Vt), minute ventilation (Ve), peak inspiratory flow, peak expiratory flow, inspiratory time (Ti), expiratory time (Te), and accumulated volume. An additional opening on the wall of the box allows volume calibration by injecting and removing air from the box with a calibrated syringe.
# (§2) The noise level in the laboratory was kept to a minimum in order not to startle the animals. Further, the animals were visually isolated from the investigators by means of a chamber made of an opaque material that surrounded and covered the front-end of the body plethysmograph (FIG. 1b). Baseline recordings lasted for 4 minutes. (3) Measurement of Ventilatory Response to Carbon Dioxide. For measurement of the ventilatory response to CO2, animals were exposed to air containing 7% CO2. The animals breathed from a funnel fixed in the front wall of a chamber made of an opaque material (FIG. 1b). The animals were exposed to the gas mixture containing 7% CO2 (mixed with 60% O2 and 33% N2) for 5 minutes with recording of respiratory activity for another 2 minutes (a total recording duration of 7 minutes).
# (§3) The 5HT1A receptor antagonist, p-MPPI (RBI, Natick, Mass.) was also dissolved in 0.9% saline and given i.p. in a dose of 3 mg/kg (pH 7.4 and final volume of 0.5 ml). […] Vehicle solution (VEH) was 0.9% saline and also injected at i.p. (pH 7.4; volume: 0.5 ml/rat).
# T8 SCI rats = assay: Respiratory function by head-out plethysmograph in conscious rats after T8 contusion SCI; assay type: in vivo, rat
# Procedure: Female Sprague-Dawley rats (250–280 g and 360–390 g; Taconic, Germantown, N.Y.) were anesthetized with 4% chloral hydrate (360 mg/kg, i.p.). An incomplete spinal courd contusion injury was produced at T8 with a weight drop device (10 g×2.5 cm) as previously described (Wrathall et al., 1985). After SCI, manual expression of bladders was performed twice daily until a reflex bladder was established. Animal care also included housing the rats in pairs to reduce isolation-induced stress, maintaining ambient temperature at 22–25° C., and using highly absorbent bedding. No prophylactic antibiotics were given.
# as §1, §2, §3
# Baseline respiratory function was measured under room air ventilation and after the animal was stabilized inside a boy cylinder (FIGS. 1a and b) for 30 minutes at each time point prior to SCI and after injury. Immediately following the evaluation of baseline respiration, the animals were let to breathe air containing 7% CO2 for 7 minutes to monitor their ventilatory response to CO2 stimulus (Teng et al., 1998a and 1999).
# [2] = 7% CO2 at 31′ & 32′ after 8-OH-DPAT 250 μg/kg i.p.
# [3] = baseline (room air), 3 & 4 min post 8-OH-DPAT 250 μg/kg i.p.
# [4] = baseline (room air), 11 & 12 min post 8-OH-DPAT 250 μg/kg i.p.
# [5] = baseline (room air), 21 & 22 min post 8-OH-DPAT 250 μg/kg i.p.
# [6] = 24 hours p.i., 8-OH-DPAT 250 μg/kg i.p., time-course study, n=3
# [7] = 24 hours post SCI, pre-treated with p-MPPI 3 mg/kg i.p. 20 min before, 7% CO2 at 16′ & 17′ after 8-OH-DPAT
# [8] = 24 hours post SCI, pre-treated with p-MPPI 3 mg/kg i.p. 20 min before, baseline, 3 & 4 min post 8-OH-DPAT
# [9] = 24 hours post SCI, pre-treated with p-MPPI 3 mg/kg i.p. 20 min before, baseline, 9 & 10 min post 8-OH-DPAT
# [10] = 24 h p.i., 7% CO2 at 24 min after 8-OH-DPAT 250 μg/kg i.p.
# [11] = 24 h p.i., baseline (room air), 3 & 4 min post 8-OH-DPAT 250 μg/kg i.p.
# [12] = 24 h p.i., baseline (room air), 21 & 22 min post 8-OH-DPAT 250 μg/kg i.p.
# [13] = 7 d p.i., 7% CO2 at 31′ & 32′ post 8-OH-DPAT 250 μg/kg i.p.
# [14] = 7 d p.i., baseline (room air), 3 & 4 min post 8-OH-DPAT 250 μg/kg i.p.
# [15] = 7 d p.i., baseline (room air), 21 & 22 min post 8-OH-DPAT 250 μg/kg i.p.
compound,measurement,setting,value
"CCCN(CCC)C1CCc2cccc(O)c2C1 (stereo not shown) [8-OH-DPAT, 8-hydroxy-2-(di-n-propylamino)tetralin]",systematic half life (T1/2),[1],~50 min
same,Te (expiratory time),normal conscious rats; [2],0.23 ± 0.03
same,Ti (inspiratory time),normal conscious rats; [2],0.19 ± 0.01
same,Tv (tidal volume),normal conscious rats; [2],1.50 ± 0.14 mL
same,Ve (minute ventilation),normal conscious rats; [2],239.3 ± 48.9 mL/min
same,f (respiratory rate),normal conscious rats; [2],155.6 ± 18.5 breaths/min
same,duration of increase in baseline Vt,normal conscious rats; 8-OH-DPAT 250 μg/kg i.p.,4 min
same,duration of stimulating effect on f,"normal conscious rats; 8-OH-DPAT 250 μg/kg i.p., to last minute of observation",≥ 23 min
same,Te (expiratory time),normal conscious rats; [3],0.25 ± 0.09↓
same,Ti (inspiratory time),normal conscious rats; [3],0.19 ± 0.04
same,Tv (tidal volume),normal conscious rats; [3],1.14 ± 0.08↑ ml
same,Ve (minute ventilation),normal conscious rats; [3],198.6 ± 32.9↑ ml/min
same,f (respiratory rate),normal conscious rats; [3],177.5 ± 36.2↑ breaths/min
same,Te (expiratory time),normal conscious rats; [4],0.30 ± 0.07↓
same,Ti (inspiratory time),normal conscious rats; [4],0.16 ± 0.02
same,Tv (tidal volume),normal conscious rats; [4],0.92 ± 0.05 mL
same,Ve (minute ventilation),normal conscious rats; [4],138.6 ± 27.6↑ ml/min
same,f (respiratory rate),normal conscious rats; [4],149.8 ± 26.5↑ breaths/min
same,Te (expiratory time),normal conscious rats; [5],0.41 ± 0.08↓
same,Ti (inspiratory time),normal conscious rats; [5],0.18 ± 0.02
same,Tv (tidal volume),normal conscious rats; [5],0.84 ± 0.02 mL
same,Ve (minute ventilation),normal conscious rats; [5],112.9 ± 15.2↑ ml/min
same,f (respiratory rate),normal conscious rats; [5],134.4 ± 21.2↑ breaths/min
same,ventilatory response to 7% CO2 challenge,normal conscious rats; starting at 24 minutes after 8-OH-DPAT,did not significantly alter
same,effect on SCI-induced abnormal respiratory pattern,"T8 SCI rats; 24 hours after SCI, 8-OH-DPAT 250 μg/kg i.p.",promptly and successfully reversed the injury-triggered respiratory abnormalities
same,duration of initial rise of f above p.i. levels,"T8 SCI rats; 24 hours p.i., 8-OH-DPAT 250 μg/kg i.p.",about 20 minutes
same,time for which a single dose normalized ventilatory response to breathing 7% CO2,T8 SCI rats; [6],more than 2 hours
same,time for which improvement of baseline Ve (room air) was significant,T8 SCI rats; [6],1 h
same,Te (expiratory time),T8 SCI rats; [7],0.32 ± 0.05
same,Ti (inspiratory time),T8 SCI rats; [7],0.19 ± 0.02
same,Tv (tidal volume),T8 SCI rats; [7],1.15 ± 0.21↓ ml
same,Ve (minute ventilation),T8 SCI rats; [7],143.1 ± 28.1↓ ml/min
same,f (respiratory rate),T8 SCI rats; [7],126.8 ± 14.4 breaths/min
same,Te (expiratory time),T8 SCI rats; [8],0.32 ± 0.08↓
same,Ti (inspiratory time),T8 SCI rats; [8],0.32 ± 0.02
same,Tv (tidal volume),T8 SCI rats; [8],0.85 ± 0.14↓ ml
same,Ve (minute ventilation),T8 SCI rats; [8],82.5 ± 10.9↓ ml/min
same,f (respiratory rate),T8 SCI rats; [8],99.4 ± 9.1↑ breaths/min
same,Te (expiratory time),T8 SCI rats; [9],0.28 ± 0.02↓
same,Ti (inspiratory time),T8 SCI rats; [9],0.31 ± 0.02
same,Tv (tidal volume),T8 SCI rats; [9],0.82 ± 0.11↓ ml
same,Ve (minute ventilation),T8 SCI rats; [9],88.3 ± 13.3↓ ml/min
same,f (respiratory rate),T8 SCI rats; [9],107.5 ± 1.9↑ breaths/min
same,Ti (inspiratory time),T8 SCI rats; [10],0.17 ± 0.01
same,Tv (tidal volume),T8 SCI rats; [10],1.52 ± 0.08 mL
same,Ve (minute ventilation),T8 SCI rats; [10],267.5 ± 21.8 mL/min
same,f (respiratory rate),T8 SCI rats; [10],175.9 ± 9.7 breaths/min
same,Te (expiratory time),T8 SCI rats; [11],0.25 ± 0.02↓
same,Ti (inspiratory time),T8 SCI rats; [11],0.19 ± 0.01
same,Tv (tidal volume),T8 SCI rats; [11],0.96 ± 0.08 mL
same,Ve (minute ventilation),T8 SCI rats; [11],149.9 ± 15.6↑ ml/min
same,f (respiratory rate),T8 SCI rats; [11],155.5 ± 8.7↑ breaths/min
same,Te (expiratory time),T8 SCI rats; [12],0.47 ± 0.02
same,Ti (inspiratory time),T8 SCI rats; [12],0.18 ± 0.01
same,Tv (tidal volume),T8 SCI rats; [12],0.80 ± 0.06 mL
same,Ve (minute ventilation),T8 SCI rats; [12],81.3 ± 10.9 mL/min
same,f (respiratory rate),T8 SCI rats; [12],98.5±3.7 breaths/min and 98.5 ± 5.18 breaths/min
same,effect on SCI-induced abnormal respiratory pattern,"T8 SCI rats; 7 days p.i., 8-OH-DPAT 250 μg/kg i.p.",restored this abnormal pattern of breathing to normal
same,Te (expiratory time),T8 SCI rats; [13],0.17 ± 0.01
same,Ti (inspiratory time),T8 SCI rats; [13],0.16 ± 0.01
same,Tv (tidal volume),T8 SCI rats; [13],1.79 ± 0.35 mL
same,Ve (minute ventilation),T8 SCI rats; [13],327.2 ± 53.7↑ ml/min
same,f (respiratory rate),T8 SCI rats; [13],184.6 ± 6.6↑ breaths/min
same,Te (expiratory time),T8 SCI rats; [14],0.26 ± 0.03↓
same,Ti (inspiratory time),T8 SCI rats; [14],0.16 ± 0.01
same,Tv (tidal volume),T8 SCI rats; [14],1.11 ± 0.05 mL
same,Ve (minute ventilation),T8 SCI rats; [14],172.1 ± 17.1↑ ml/min
same,f (respiratory rate),T8 SCI rats; [14],155.2 ± 8.9↑ breaths/min
same,Te (expiratory time),T8 SCI rats; [15],0.32 ± 0.02↓
same,Ti (inspiratory time),T8 SCI rats; [15],0.15 ± 0.01
same,Tv (tidal volume),T8 SCI rats; [15],0.79 ± 0.04 mL
same,Ve (minute ventilation),T8 SCI rats; [15],103.0 ± 2.1↑ ml/min
same,f (respiratory rate),T8 SCI rats; [15],131.7 ± 7.7↑ breaths/min
